# Read-outs that look alike come from different tables or passages of the source.
# What was measured:
# A-673 cells = assay: Cell viability, crystal violet staining; type: cell-based; conditions: Homo sapiens
# Summary of the method: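 Readout is absorbance at 570 nm of crystal violet, taken up in 0.1 M sodium citrate in 50% ethanol after staining with 0.5% dye in 25% methanol. Plates held 5×10^3 cells per well, and compounds were added one day after seeding for 72 hours. Data are relative to vehicle, mean±SE.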
# [1] = tested on: FOXM1^A2 mRNA and FOXM1^BC mRNA; assay: Splicing assay (FOXM1), qPCR of isoform mRNAs; type: cell-based
# Summary of the method: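 RT-qPCR read-out after 24 h compound exposure at 37° C., 0.2% DMSO, top dose 10 μM with 4-fold 8-point dilutions, 20,000 cells per well. Copy numbers from plasmid standard curves, PPIA-normalized, expressed as isoform ratio relative to DMSO.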
# [2] = A673, cell viability, read-out: A-673 IC50 (nM) Cell viability
# [3] = FoxM1 BC mRNA decrease (exon included), read-out: Splice IC50 (nM) FoxM1 BC mRNA decrease (exon included)
# [4] = read-out: Splice EC50 (nM) FoxM1 A mRNA increase (exon excluded)
# [5] = A673, cell viability, read-out: A-673 IC50 (nM), Cell viability
# [6] = 24 h, FoxM1 BC mRNA decrease (exon included), 0.1-1000 nM, 24 hours, read-out: Splice IC50 (nM), FoxM1 BC mRNA decrease (exon included)
# [7] = FoxM1 A mRNA increase (exon excluded), 0.1-1000 nM, 24 hours, read-out: Splice EC50 (nM), FoxM1 A mRNA increase (exon excluded)
Compound,IC50 (A-673 cells; [2]),"IC50 [1, 3]","EC50 [1, 4]",IC50 (A-673 cells; [5]),"IC50 [1, 6]","EC50 [1, 7]",further results
"C[C@]12CC[C@](C)(C[C@H](Oc3ccc(-c4ccc(-c5cn[nH]c5)cc4O)nn3)C1)N2 [compound 153, 2-(6-(((1R,3r,5S)-1,5-dimethyl-8-azabicyclo[3.2.1]octan-3-yl)oxy)pyridazin-3-yl)-5-(1H-pyrazol-4-yl)phenol]",> 1000 nM,> 1000 nM,> 1000 nM,,,,
"CN(c1ccc(-c2ccc(-c3cn[nH]c3)cc2O)nn1)[C@H]1C[C@H]2COC[C@@H](C1)N2 [compound 155, 2-(6-(((1R,5S,7s)-3-oxa-9-azabicyclo[3.3.1]nonan-7-yl)(methyl)amino)pyridazin-3-yl)-5-(1H-pyrazol-4-yl)phenol]",> 1000 nM,> 1000 nM,> 1000 nM,,,,
"Oc1cc(-c2cn[nH]c2)ccc1-c1ccc(O[C@H]2C[C@H]3COC[C@@H](C2)N3)nn1 [compound 158, 2-(6-(((1R,5S,7s)-3-oxa-9-azabicyclo[3.3.1]nonan-7-yl)oxy)pyridazin-3-yl)-5-(1H-pyrazol-4-yl)phenol]",> 1000 nM,> 1000 nM,> 1000 nM,,,,
"Oc1cc(-c2cn[nH]c2)ccc1-c1ccc(O[C@@H]2C[C@H]3COC[C@@H](C2)N3)nn1 [compound 159, 2-(6-(((1R,5S,7r)-3-oxa-9-azabicyclo[3.3.1]nonan-7-yl)oxy)pyridazin-3-yl)-5-(1H-pyrazol-4-yl)phenol]",501 to 1000 nM,501 to 1000 nM,251 to 500 nM,,,,
"CN(c1ccc(-c2cc3oc(=O)n(C)c3cc2O)nn1)[C@@H]1C[C@H]2CC[C@@H](C1)N2 [compound 164, 6-(6-(((1R,3s,5S)-8-azabicyclo[3.2.1]octan-3-yl)(methyl)amino)pyridazin-3-yl)-5-hydroxy-3-methylbenzo[d]oxazol-2(3H)-one]",251 to 500 nM,10 to 100 nM,10 to 100 nM,,,,
"CN(c1ccc(-c2ccc(-c3cnn(C)c(=O)c3)cc2O)nn1)[C@H]1C[C@]2(C)CC[C@](C)(C1)N2 [compound 170, 5-(4-(6-(((1R,3s,5S)-1,5-dimethyl-8-azabicyclo[3.2.1]octan-3-yl)(methyl)amino)pyridazin-3-yl)-3-hydroxyphenyl)-2-methylpyridazin-3(2H)-one]",< 10 nM,< 10 nM,< 10 nM,,,,
"CN(c1ccc(-c2ccc(-c3ccn(C)c(=O)n3)cc2O)nn1)[C@H]1C[C@]2(C)CC[C@](C)(C1)N2 [compound 180, 4-(4-(6-(((1R,3s,5S)-1,5-dimethyl-8-azabicyclo[3.2.1]octan-3-yl)(methyl)amino)pyridazin-3-yl)-3-hydroxyphenyl)-1-methylpyrimidin-2(1H)-one]",101 to 250 nM,10 to 100 nM,10 to 100 nM,,,,
"Cc1cc(-c2ccc(N(C)[C@H]3C[C@]4(C)CC[C@](C)(C3)N4)nn2)c(O)cc1-c1cn[nH]c1 [compound 182, 2-(6-(((1R,3s,5S)-1,5-dimethyl-8-azabicyclo[3.2.1]octan-3-yl)(methyl)amino)pyridazin-3-yl)-4-methyl-5-(1H-pyrazol-4-yl)phenol]",10 to 100 nM,< 10 nM,< 10 nM,,,,
"CN(c1ccc(-c2ccc(-c3cnn(C(F)(F)F)c3)cc2O)nn1)[C@H]1C[C@]2(C)CC[C@](C)(C1)N2 [compound 186, 2-(6-(((1R,3s,5S)-1,5-dimethyl-8-azabicyclo[3.2.1]octan-3-yl)(methyl)amino)pyridazin-3-yl)-5-(1-(trifluoromethyl)-1H-pyrazol-4-yl)phenol]",> 1000 nM,101 to 250 nM,10 to 100 nM,,,,
"CN(c1ccc(-c2ccc(-c3ccn(CF)c(=O)c3)cc2O)nn1)[C@H]1C[C@]2(C)CC[C@](C)(C1)N2 [compound 187, 4-(4-(6-(((1R,3s,5S)-1,5-dimethyl-8-azabicyclo[3.2.1]octan-3-yl)(methyl)amino)pyridazin-3-yl)-3-hydroxyphenyl)-1-(fluoromethyl)pyridin-2(1H)-one]",10 to 100 nM,< 10 nM,< 10 nM,,,,
"CNC(=O)c1cc2cc(O)c(-c3ccc(N(C)[C@H]4C[C@]5(C)CC[C@](C)(C4)N5)nn3)cc2o1 [compound 188, 6-(6-(((1R,3s,5S)-1,5-dimethyl-8-azabicyclo[3.2.1]octan-3-yl)(methyl)amino)pyridazin-3-yl)-5-hydroxy-N-methylbenzofuran-2-carboxamide]",10 to 100 nM,10 to 100 nM,< 10 nM,,,,
"COc1cc(-c2ccc(-c3ccc(N(C)[C@H]4C[C@]5(C)CC[C@](C)(C4)N5)nn3)c(O)c2)cnn1 [compound 191, 2-(6-(((1R,3s,5S)-1,5-dimethyl-8-azabicyclo[3.2.1]octan-3-yl)(methyl)amino)pyridazin-3-yl)-5-(6-methoxypyridazin-4-yl)phenol]",< 10 nM,,,,,,"IC50 (A-673 cells; A673, read-out: A-673 cell viability (IC50)): < 1 nM; IC50 ([1]; Homo sapiens, A673, 24 h, A-673 cells, 24 hours, table does not say EC50 or IC50, read-out: FOXM1): < 1 nM; IC50 ([1]; Homo sapiens, A-375, 24 h, A-375 cells, 24 hours, table does not say EC50 or IC50, read-out: FOXM1): 1 to 10 nM; IC50 ([1]; Homo sapiens, K562, 24 h, K-562 cells, 24 hours, table does not say EC50 or IC50, read-out: FOXM1): 1 to 10 nM; IC50 ([1]; Homo sapiens, MDA-MB-468, 24 h, MDA-MB-468 cells, 24 hours, table does not say EC50 or IC50, read-out: FOXM1): 1 to 10 nM; IC50 ([1]; Homo sapiens, NCI-H358, 24 h, NCI-H358 cells, 24 hours, table does not say EC50 or IC50, read-out: FOXM1): 1 to 10 nM; IC50 ([1]; Homo sapiens, PANC-1, 24 h, PANC-1 cells, 24 hours, table does not say EC50 or IC50, read-out: FOXM1): 101 to 200 nM; IC50 ([1]; Homo sapiens, PC-3, 24 h, PC-3 cells, 24 hours, table does not say EC50 or IC50, read-out: FOXM1): 11 to 100 nM; IC50 ([1]; Homo sapiens, U-87 MG, 24 h, U-87MG cells, 24 hours, table does not say EC50 or IC50, read-out: FOXM1): 11 to 100 nM"
"CNC(=O)c1cc2cc(-c3ccc(N(C)[C@H]4C[C@]5(C)CC[C@](C)(C4)N5)nn3)c(O)cc2o1 [compound 192, 5-(6-(((1R,3s,5S)-1,5-dimethyl-8-azabicyclo[3.2.1]octan-3-yl)(methyl)amino)pyridazin-3-yl)-6-hydroxy-N-methylbenzofuran-2-carboxamide]",10 to 100 nM,< 10 nM,< 10 nM,,,,
"Cc1nnc(-c2ccc(-c3ccc(N(C)[C@@H]4C[C@H]5CC[C@@H](C4)N5)nn3)c(O)c2)o1 [compound 219, 2-(6-(((1R,3s,5S)-8-azabicyclo[3.2.1]octan-3-yl)(methyl)amino)pyridazin-3-yl)-5-(5-methyl-1,3,4-oxadiazol-2-yl)phenol]",,,,> 1000 nM,10 to 100 nM,10 to 100 nM,
"CN(c1ccc(-c2ccc(-n3cccn3)cc2O)nn1)[C@@H]1C[C@H]2CC[C@@H](C1)N2 [compound 220, 2-(6-(((1R,3s,5S)-8-azabicyclo[3.2.1]octan-3-yl)(methyl)amino)pyridazin-3-yl)-5-(1H-pyrazol-1-yl)phenol]",,,,10 to 100 nM,10 to 100 nM,< 10 nM,
"Cc1cnn(-c2ccc(-c3ccc(N(C)[C@@H]4C[C@H]5CC[C@@H](C4)N5)nn3)c(O)c2)c1 [compound 221, 2-(6-(((1R,3s,5S)-8-azabicyclo[3.2.1]octan-3-yl)(methyl)amino)pyridazin-3-yl)-5-(4-methyl-1H-pyrazol-1-yl)phenol]",,,,101 to 250 nM,10 to 100 nM,10 to 100 nM,
"Cc1ccn(-c2ccc(-c3ccc(N(C)[C@@H]4C[C@H]5CC[C@@H](C4)N5)nn3)c(O)c2)n1 [compound 222, 2-(6-(((1R,3s,5S)-8-azabicyclo[3.2.1]octan-3-yl)(methyl)amino)pyridazin-3-yl)-5-(3-methyl-1H-pyrazol-1-yl)phenol]",,,,10 to 100 nM,10 to 100 nM,< 10 nM,
"CN(c1ccc(-c2ccc(-n3ccnn3)cc2O)nn1)[C@@H]1C[C@H]2CC[C@@H](C1)N2 [compound 224, 2-(6-(((1R,3s,5S)-8-azabicyclo[3.2.1]octan-3-yl)(methyl)amino)pyridazin-3-yl)-5-(1H-1,2,3-triazol-1-yl)phenol]",,,,101 to 250 nM,10 to 100 nM,< 10 nM,
"Cc1cn(-c2ccc(-c3ccc(N(C)[C@@H]4C[C@H]5CC[C@@H](C4)N5)nn3)c(O)c2)nn1 [compound 225, 2-(6-(((1R,3s,5S)-8-azabicyclo[3.2.1]octan-3-yl)(methyl)amino)pyridazin-3-yl)-5-(4-methyl-1H-1,2,3-triazol-1-yl)phenol]",,,,10 to 100 nM,10 to 100 nM,10 to 100 nM,
"CN(c1ccc(-c2ccc(-c3c[nH]nn3)cc2O)nn1)[C@@H]1C[C@H]2CC[C@@H](C1)N2 [compound 226, 2-(6-(((1R,3s,5S)-8-azabicyclo[3.2.1]octan-3-yl)(methyl)amino)pyridazin-3-yl)-5-(1H-1,2,3-triazol-4-yl)phenol]",,,,101 to 250 nM,10 to 100 nM,10 to 100 nM,
"CN(c1ccc(-c2ccc(-c3nnn[nH]3)cc2O)nn1)[C@@H]1C[C@H]2CC[C@@H](C1)N2 [compound 227, 2-(6-(((1R,3s,5S)-8-azabicyclo[3.2.1]octan-3-yl)(methyl)amino)pyridazin-3-yl)-5-(1H-tetrazol-5-yl)phenol]",,,,> 1000 nM,> 1000 nM,> 1000 nM,
"Cc1cc(-c2ccc(-c3ccc(N(C)[C@@H]4C[C@H]5CC[C@@H](C4)N5)nn3)c(O)c2)on1 [compound 229, 2-(6-(((1R,3s,5S)-8-azabicyclo[3.2.1]octan-3-yl)(methyl)amino)pyridazin-3-yl)-5-(3-methylisoxazol-5-yl)phenol]",,,,> 1000 nM,> 1000 nM,> 1000 nM,

# Reference: patent US11008572B2, “Methods and compositions for modulating splicing” (SKYHAWK THERAPEUTICS, INC., priority 2017, dated 2021)
